Assay results from patent publication EP4800018A1, “PAN-KRAS INHIBITOR AND USE THEREOF IN MEDICINES” (Betta Pharmaceuticals Co., Ltd., priority 2023, dated 2025).

Tests used:
[1] = system: KRAS-G12D mutant tumor cells AGS; experiment: Cell Proliferation Inhibition Assay (AGS), Cell-titer GLO, 96 h; format: cell-based; details: Homo sapiens, AGS, 96 h, AGS cells, 96 h incubation, Cell-titer GLO; read-out: AGS(G12D)
Procedure, shortened: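 Inhibition % was derived from CellTiter-Glo luminescence (max minus measured, over max minus blank) and fitted to give IC50. Cells were KRAS-G12D AGS in low-attachment wells, treated for 96 h at 37°C.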

KRAS G12D-cRAF = target: T1, KRAS G12D-cRAF (Homo sapiens, UniProt P01116, G12D); experiment: Cellular KRAS G12D-cRAF Binding Inhibition Assay (NanoBRET, AD293 stable cells); format: cell-based; details: 3 h incubation, read-out: NanoBRET KRAS G12D
T1 construct: expressed in transfected cells
T1 sequence (P01116 1-188 isoform P01116-2 G12D): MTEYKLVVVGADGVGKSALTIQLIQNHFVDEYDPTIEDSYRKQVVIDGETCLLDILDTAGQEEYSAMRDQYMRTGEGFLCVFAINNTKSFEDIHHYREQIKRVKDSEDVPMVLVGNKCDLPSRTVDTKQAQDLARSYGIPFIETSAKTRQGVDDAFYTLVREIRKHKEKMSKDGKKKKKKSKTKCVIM
Procedure, shortened: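 IC50 values derive from fitted % inhibition, normalised to maximum signal and medium-only blank. The read-out is NanoBRET between KRAS G12D-NanoLuc (donor) and cRAF RBD-HaloTag labelled with the 618 ligand (acceptor), in live stably transfected AD293 cells at 1×10^4/well.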

[2] = PK Study of Compounds in Mice; format: in vivo, Female ICR mice; details: mean; for Cmax: read-out: C0/Cmax
Procedure: The test compound was mixed with the vehicle (10% DMSO/5% Solutol/85% physiological saline), vortexed and sonicated to prepare a clear 0.2 mg/mL intravenous injection solution. The test compound was mixed with the vehicle (20% PEG400/10% Solutol/70% pH 4.5 acetate buffer), vortexed and sonicated to prepare a clear 1 mg/mL oral solution. Female ICR mice aged 6 to 7 weeks were selected and administered the test compound via intravenous (IV) and oral (PO) routes, respectively. Whole blood samples were collected at 5 min, 15 min, 30 min, 1 h, 2 h, 4 h, 7 h, and 24 h for the intravenous route, and at 15 min, 30 min, 1 h, 2 h, 4 h, 7 h, and 24 h for the oral route. Drug concentrations were analyzed by LC-MS/MS method, and pharmacokinetic parameters were calculated using Phoenix WinNonlin software (Pharsight, USA).

[3] = PK Study of Compounds in Dogs; format: in vivo, Beagle dogs; details: mean; for Cmax: read-out: C0/Cmax
Procedure: The test compound was mixed with the vehicle (10% DMSO/5% Solutol/85% physiological saline), vortexed and sonicated to prepare a clear 1 mg/mL intravenous injection solution. The test compound was mixed with the vehicle (10% DMSO + 5% HS15 + 85% 10 mM aqueous citric acid solution), vortexed and sonicated to prepare a clear 0.6 mg/mL oral solution. Beagle dogs (two males, one female) were selected and administered the test compound via intravenous (IV) and oral (PO) routes, respectively. Whole blood samples were collected at 0 min, 5 min, 15 min, 30 min, 1 h, 2 h, 4 h, 6 h, 8 h, 12 h, 24 h, 48 h, and 72 h for the intravenous route, and at 0 min, 15 min, 30 min, 1 h, 2 h, 4 h, 6 h, 8 h, 12 h, 24 h, 48 h, and 72 h for the oral route. Drug concentrations were analyzed by LC-MS/MS method, and pharmacokinetic parameters were calculated using Phoenix WinNonlin software (Pharsight, USA).

KRAS G12V-cRAF = target: T2, KRAS G12V-cRAF (Homo sapiens, UniProt P01116, G12V); experiment: Cellular KRAS G12V-cRAF Binding Inhibition Assay (NanoBRET, AD293 stable cells); format: cell-based; details: 3 h incubation, read-out: NanoBRET KRAS G12V
T2 construct: expressed in transfected cells
T2 sequence (P01116 1-188 isoform P01116-2 G12V): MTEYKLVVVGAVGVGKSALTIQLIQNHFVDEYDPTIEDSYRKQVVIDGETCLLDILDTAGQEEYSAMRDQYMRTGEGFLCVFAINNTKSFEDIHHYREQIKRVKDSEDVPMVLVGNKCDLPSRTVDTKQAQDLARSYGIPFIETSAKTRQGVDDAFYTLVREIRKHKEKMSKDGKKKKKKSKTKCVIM
Procedure, shortened: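 Binding measured as BRET between NanoLuc and HaloTag-bound NanoBRET 618 ligand (added overnight) in stably expressing AD293 cells. Signals were converted to percent inhibition against max and blank wells and fitted for IC50.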

[4] = system: KRAS-G12V mutant tumor cells SW620; experiment: Cell Proliferation Inhibition Assay (SW620), Cell-titer GLO, 96 h; format: cell-based; details: Homo sapiens, SW-620, 96 h, SW620 cells, 96 h incubation, Cell-titer GLO; read-out: SW620(G12V)
Procedure, shortened: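 Readout: Cell-titer GLO luminescence after 96 h at 37°C, converted to percent inhibition against 0.5% DMSO and blank controls, with IC50 from curve fit. Low-attachment SW620 cultures (1×10^3 cells/well) were dosed at 10000–0.03 nM final.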

[5] = female, ICR, mouse, whole blood, IV 1 mg/kg (n=3)
[6] = female, ICR, mouse, whole blood, PO 10 mg/kg (n=3)
[7] = both sexes, beagle, dog, whole blood, IV 1 mg/kg (n=3)
[8] = both sexes, beagle, dog, whole blood, PO 3 mg/kg (n=3)

An IC50 [1] of 0.42 nM, an IC50 (KRAS G12D-cRAF) of 0.8 nM and an F ([2]; PO 10 mg/kg vs IV 1 mg/kg (n=3)) of 31.1 were found for `CC1OCCCn2c(c3c4cc(ccc42)-c2csc(n2)CC(NC(=O)C2C(C)C2C)C(=O)N2NC(C(=O)OCC(C)(C)C3)C3CC2C3)-c2cc(N3CCN(C)CC3)cnc21` [Example 186, (1r,2R,3S)-2,3-dimethyl-N-((1^5S,6^4S,4S,Z)-1^5,10,10-trimethyl-1^2-(4-methylpiperazin-1-yl)-5,7-dioxo-1^8,1^9-dihydro-1^5H,1^7H-8-oxa-6^2,6^3-diaza-1(13,15)-pyrido[3',2':7,8][1,5]oxazonino[5,6-a]indola-2(4,2)-thiazola-6(2,4)-bicyclo[3.1.1]heptanacycloundecaphane-4-yl)cyclopropane-1-carbox amide] in this work. It also gave an AUC(0-t) [2, 5] of 3260 ng·h/mL, a clearance [2, 5] of 4.45 mL/min/kg and a half-life [2, 5] of 9.31 h. It also gave a Cmax [2, 5] of 571 ng/mL, a Vd ([2]; female, ICR, mouse, whole blood, IV 1 mg/kg (n=3), read-out: Vss) of 3.09 L/kg and an AUC(0-t) [2, 6] of 10100 ng·h/mL. It also gave a Tmax [2, 6] of 4 h, a Cmax [2, 6] of 679 ng/mL and an F ([3]; PO 3 mg/kg vs IV 1 mg/kg (n=3)) of 41.2. For the same molecule, the AUC(0-t) [3, 7] was 16600 ng·h/mL, the clearance [3, 7] was 0.659 mL/min/kg and the half-life [3, 7] was 34.8 h. For the same molecule, the Cmax [3, 7] was 2020 ng/mL, the Vd ([3]; both sexes, beagle, dog, whole blood, IV 1 mg/kg (n=3), read-out: Vss) was 2.62 L/kg and the AUC(0-t) [3, 8] was 20500 ng·h/mL. The Tmax [3, 8] was 1.17 h, the Cmax [3, 8] was 608 ng/mL and the IC50 (KRAS G12V-cRAF) was 5.4 nM. The IC50 [4] was 0.15 nM.
